How the values were obtained:
Conditions in all cases: Compound concentration 10.0 uM, Protein concentration 2.0 uM
[1] = target: Bromodomain-containing protein 2 (Homo sapiens) (UniProt P25440)
[2] = target: Bromodomain-containing protein 2 (Homo sapiens) (UniProt P25440); remark: listed apart in the source
[3] = target: Histone acetyltransferase KAT2B (Homo sapiens) (UniProt Q92831)
[4] = target: Nuclear body protein SP140-like protein (Homo sapiens) (UniProt Q9H930)
Sequence of Nuclear body protein SP140-like protein (Homo sapiens) (Q9H930 whole entry): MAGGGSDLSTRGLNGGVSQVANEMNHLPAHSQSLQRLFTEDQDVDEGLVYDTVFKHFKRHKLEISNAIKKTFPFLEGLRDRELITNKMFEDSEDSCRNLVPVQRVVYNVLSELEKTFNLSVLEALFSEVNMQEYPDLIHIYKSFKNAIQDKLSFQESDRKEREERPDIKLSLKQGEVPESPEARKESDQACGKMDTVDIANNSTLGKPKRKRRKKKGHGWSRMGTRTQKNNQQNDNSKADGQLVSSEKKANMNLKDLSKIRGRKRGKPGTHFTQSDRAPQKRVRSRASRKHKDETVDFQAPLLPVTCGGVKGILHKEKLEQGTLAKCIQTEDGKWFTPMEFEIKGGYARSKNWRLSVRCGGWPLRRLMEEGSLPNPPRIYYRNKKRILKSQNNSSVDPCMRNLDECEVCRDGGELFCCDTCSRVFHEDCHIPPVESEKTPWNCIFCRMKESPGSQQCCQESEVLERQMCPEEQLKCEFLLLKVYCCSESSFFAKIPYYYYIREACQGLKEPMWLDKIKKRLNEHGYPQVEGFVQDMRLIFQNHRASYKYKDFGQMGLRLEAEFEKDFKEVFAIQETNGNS

Sequence of Bromodomain-containing protein 2 (Homo sapiens) (P25440 whole entry, looked up): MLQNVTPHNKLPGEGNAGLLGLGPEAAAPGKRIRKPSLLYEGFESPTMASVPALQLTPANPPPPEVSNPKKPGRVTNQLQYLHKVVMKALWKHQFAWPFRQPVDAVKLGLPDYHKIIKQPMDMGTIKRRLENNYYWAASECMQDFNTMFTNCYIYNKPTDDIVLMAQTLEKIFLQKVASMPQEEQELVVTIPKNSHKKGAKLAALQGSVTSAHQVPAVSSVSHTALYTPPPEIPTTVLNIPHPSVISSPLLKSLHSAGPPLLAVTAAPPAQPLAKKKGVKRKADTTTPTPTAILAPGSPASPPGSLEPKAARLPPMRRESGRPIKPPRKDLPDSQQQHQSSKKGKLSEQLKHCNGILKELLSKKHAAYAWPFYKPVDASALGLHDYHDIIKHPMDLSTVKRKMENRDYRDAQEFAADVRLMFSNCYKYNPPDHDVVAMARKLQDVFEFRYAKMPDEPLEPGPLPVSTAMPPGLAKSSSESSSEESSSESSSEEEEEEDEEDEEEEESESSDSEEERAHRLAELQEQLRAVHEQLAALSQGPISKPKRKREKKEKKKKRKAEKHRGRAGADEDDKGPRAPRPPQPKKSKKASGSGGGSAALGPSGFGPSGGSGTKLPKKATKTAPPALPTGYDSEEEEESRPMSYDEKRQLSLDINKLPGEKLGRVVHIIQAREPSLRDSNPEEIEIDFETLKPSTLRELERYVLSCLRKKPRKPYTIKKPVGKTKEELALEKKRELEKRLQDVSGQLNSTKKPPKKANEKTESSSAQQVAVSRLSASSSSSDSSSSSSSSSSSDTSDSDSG
Sequence of Histone acetyltransferase KAT2B (Homo sapiens) (Q92831 whole entry, looked up): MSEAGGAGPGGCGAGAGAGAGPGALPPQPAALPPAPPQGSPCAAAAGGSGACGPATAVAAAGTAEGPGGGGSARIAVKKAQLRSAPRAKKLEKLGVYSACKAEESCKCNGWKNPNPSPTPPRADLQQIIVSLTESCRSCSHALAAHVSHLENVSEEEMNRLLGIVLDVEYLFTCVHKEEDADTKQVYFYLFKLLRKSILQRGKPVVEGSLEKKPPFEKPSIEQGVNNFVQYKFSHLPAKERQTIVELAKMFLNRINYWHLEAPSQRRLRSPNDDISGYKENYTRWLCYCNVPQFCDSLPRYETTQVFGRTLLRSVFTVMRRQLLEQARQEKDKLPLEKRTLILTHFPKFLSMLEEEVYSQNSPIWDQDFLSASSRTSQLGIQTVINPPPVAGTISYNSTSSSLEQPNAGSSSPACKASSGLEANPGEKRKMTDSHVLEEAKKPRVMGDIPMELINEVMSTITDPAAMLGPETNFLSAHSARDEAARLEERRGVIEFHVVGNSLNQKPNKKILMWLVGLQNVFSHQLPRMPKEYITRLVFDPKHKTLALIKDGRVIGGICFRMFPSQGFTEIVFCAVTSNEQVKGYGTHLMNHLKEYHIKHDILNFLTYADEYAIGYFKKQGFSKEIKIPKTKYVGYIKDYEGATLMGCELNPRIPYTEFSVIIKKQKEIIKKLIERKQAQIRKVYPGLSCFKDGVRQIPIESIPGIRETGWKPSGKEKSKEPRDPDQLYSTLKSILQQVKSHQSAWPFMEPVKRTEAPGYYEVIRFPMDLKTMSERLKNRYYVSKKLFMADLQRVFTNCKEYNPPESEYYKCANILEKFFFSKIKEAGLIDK

Work on `Cc1sc2c(c1C)C(c1ccc(Cl)cc1)=N[C@@H](CC(=O)OC(C)(C)C)c1nnc(C)n1-2` yielded a ΔTm [1] of 5.58 °C, a ΔTm [2] of 8.16 °C and a ΔTm [3] of 0.7 °C. The ΔTm [4] was -0.07 °C.

Source: ChEMBL document CHEMBL4649996, “Selective inhibition of BET bromodomains” (Nature, 2010)
